Experimental data as given in patent US20220323479A1, “COMPOSITIONS AND METHODS USING ADENOSYLCOBALAMIN” (SOCIETE DES PRODUITS NESTLE S.A., priority 2019, published 2022).

What was measured:
[1] = system: oxidative phosphorylation genes in skeletal muscle; assay: Gene-set enrichment and network analysis of skeletal muscle (tibialis anterior) RNA of treated old rats; format: in vivo, Male Wistar rats; details: 1 mg/kg s.c. 3 times a week, 5 months; for network analysis of regulated genes (protein-protein interactions): interaction score >0.9
Protocol: (§1) Male Wistar rats aged 3 months or 19 months were treated with adenosylcobalamin (Adenosyl-B12) or methylcobalamin (Methyl-B12) at a dose of 1 mg/kg 3 times a week during 5 months by subcutaneous injection. Control animals were injected with equivalent volumes of saline. After 5 months treatment, adult rats were defined as 8 months old rats and old (aged) animals were defined as 24 old rodents.
Total RNA was extracted from tibialis anterior using the Agencourt RNAdvance Tissue Kit. For Gene-set enrichment analysis and Network analysis, RNA quantity was measured with Ribogreen and RNA quality was checked using the Standard Sensitivity RNA Analysis Kit on a Fragment Analyzer. All cRNA targets were synthesized using the IVT plus kit and fragmented according to the Affymetrix protocol, based on the Eberwine T7 procedure. Briefly, 100 ng of total RNA were used to produce double-stranded cDNA, followed by in vitro transcription, and cRNA labeling with biotin. Gene-set enrichment analysis (GSEA) of skeletal muscle describe the significant pathway differentially expressed (FIG. 5A). For Network analysis (FIG. 5B), nodes with an interaction score >0.9 are represented in different gray levels and aggregated by biological function.

[2] = system: human skeletal muscle myotubes; assay: Luciferase-based ATP production evoked by epibatidine in myotubes; format: cell-based; details: vs control
Protocol: (§2) To test the effect of adenosyl B12 and methyl B12 in human muscle myotubes, oxygen consumption rate and ATP production were measured in human myotubes, differentiated from primary adult muscle cells (HSMM). HSMM were purchased from Lonza (https://bioscience.lonza.com). HSMM were isolated from the upper arm or leg muscle tissue of normal donors and used after the second passage. HSMM were seeded in 96-well plates at a density of 12000 cells per well in SKM-M medium (ZenBio). Myotubes were differentiated from HSMM by growing the cells in DMEM/F-12 (Gibco) containing 2% horse serum, for 4 days. From the second growing day, the medium was not containing B12.
ATP measurements were carried out using myotubes infected with the adenovirus (from Sirion biotech) expressing luciferase. Luminescence was measured at the Cytation 3 cell imaging reader (Biotek). Relative changes of ATP were measured 48 h after infection in a luminometer, in standard medium containing 145 mM NaCl, 5 mM KCl, 1 mM MgCl2, 1 mM CaCl2), 10 mM glucose and 10 mM Hepes, pH 7.4. Luciferine (5 μM) was added to promote ATP-dependent reaction and basal luminescence was normalized as 100%. ATP production was stimulated in myotubes by addition of epibatidine.
(§3) For treatment, compounds were directly added to the cell culture or myotubes cultures 3 hours (acute treatment) or 3 days (chronic treatment) before measurements. Custom module analysis based on Excel (Microsoft) and GraphPad Prism 7.02 (GraphPad) software was used for quantification.

[3] = system: human skeletal muscle myotubes; assay: Oxygen consumption rate / ATP-synthase-dependent respiration (Seahorse XF96) in epibatidine-stimulated myotubes; format: cell-based; details: myotubes treated 3 h, stimulated with epibatidine 10 μM, oligomycin 2.5 μg/ml; vs control
Protocol: as §2
Oxygen consumption was measured using a XF96 instrument (Seahorse Biosciences, North Billerica, Mass., USA). After differentiation, respiration rates were determined every 7 min at 37° C. Myotubes were stimulated with 10 μM epibatidine. […] ATP synthase-dependent respiration was calculated as the difference in respiration rate before and after the addition of oligomycin.
as §3

aged rats = assay: Rotarod muscle performance / locomotor coordination; format: in vivo, Male Wistar rats; details: 1 mg/kg s.c. 3 times a week, 5 months, vs control
Protocol: as §1
To determine muscle performance (FIG. 6), locomotor coordination was measured using rotarod device. […] The time of activity on rotarod is measured in seconds. Each animal was recorded 3 times, with a resting period of at least 10 min between each trial.

For `C/C1=C2/[N-][C@H]([C@H](CC(N)=O)[C@@]2(C)CCC(=O)NC[C@H](C)OP(=O)([O-])O[C@H]2[C@@H](O)[C@@H](n3cnc4cc(C)c(C)cc43)O[C@@H]2CO)[C@]2(C)N=C(/C(C)=C3N=C(/C=C4N=C1[C@@H](CCC(N)=O)C\4(C)C)[C@@H](CCC(N)=O)[C@]\3(C)CC(N)=O)[C@@H](CCC(N)=O)[C@]2(C)CC(N)=O.[CH3-].[Co+3]` [methyl B12, methylcobalamin, reference compound], the “network analysis of regulated genes (protein-protein interactions)” value [1] was “No network representation of oxidative phosphorylation genes is possible”, the “epibatine-stimulated ATP production” value ([2]; acute treatment, 3 h) was “not methyl B12 potentiates epibatine-stimulated ATP production” and the “ATP-synthase-dependent component of the respiration” value [3] was “does not increase the ATP-synthase-dependent component of the respiration”.
In the case of `C/C1=C2/[N-][C@H]([C@H](CC(N)=O)[C@@]2(C)CCC(=O)NC[C@@H](C)OP(=O)([O-])O[C@H]2[C@@H](O)[C@@H](n3cnc4cc(C)c(C)cc43)O[C@@H]2CO)[C@]2(C)N=C(/C(C)=C3N=C(/C=C4N=C1[C@@H](CCC(N)=O)C\4(C)C)[C@@H](CCC(N)=O)[C@]\3(C)CC(N)=O)[C@@H](CCC(N)=O)[C@]2(C)CC(N)=O.[CH2-][C@H]1O[C@@H](n2cnc3c(N)ncnc32)[C@H](O)[C@@H]1O.[Co]` [Adenosyl B12, adenosylcobalamin], the “gene expression signature of oxidative phosphorylation genes (enrichment plot analysis, GSEA)” value ([1]; Adenosyl-B12 vs Methyl-B12) is reported as “specifically shows gene expression signature of oxidative phosphorylation genes in skeletal muscle”, the “network analysis of regulated genes (protein-protein interactions)” value [1] is reported as “distinguished several clusters linked to mitochondrial respiratory chain complexes, oxidative phosphorylation and mitochondrial function” and the “epibatine-stimulated ATP production” value ([2]; acute treatment, 3 h) is reported as “potentiates epibatine-stimulated ATP production”. The “epibatine-stimulated ATP production” value ([2]; chronic treatment, 3 days) was “potentiates epibatine-stimulated ATP production”, the “ATP-synthase-dependent component of the respiration” value [3] was “increases the ATP-synthase-dependent component of the respiration” and the “time of activity on rod” value (aged rats) was “significantly increased”.
